Patent publication US9198900B2, “Treatment of peritoneal injury using JAK inhibitors” (Los Angeles Biomedical Research Institute at Harbor-UCLA …, priority 2011, dated 2015)

Key:
[1] = test system: human peritoneal mesothelial cells; details: cultured human peritoneal mesothelial cells; cited from earlier work
JAK/STAT signaling = test: Mesothelial cell exposure to heated PDF in vitro (immunoblot); assay type: cell-based, human
Method: Mesothelial cell exposure to heated PDF in vitro activated JAK/STAT signaling and induced the STAT-associated protein periostin. Heat-sterilization of PDF generates GDPs. A commercially available immortalized human mesothelial cell line was cultured in standard medium, then switched to control medium or heat-sterilized PDF (30:70, medium:PDF)×4 hrs. Heated PDF induced STAT1 phosphorylation, and the pan-JAKi P6 attenuated this (immunoblot doublet, FIG. 1A). After 24 hrs, P6 also attenuated the secretion of the injurious STAT-associated protein periostin into the medium (immunoblot triplet, FIG. 1B). Five characteristics of periostin make it an attractive marker of Pbarrier injury. 1) Periostin is a marker and mediator for the adoption of a mesenchymal phenotype by injured or transformed epithelial cells^73-75. 2) It participates in fibrous healing^76. Others show periostin in the Pbarrier of patients with fibrosis and encapsulating peritoneal sclerosis (Braun et al, ASN poster, 2011). 3) Periostin supports neovascularization^77. 4) It has a bidirectional regulatory relationship with TGF-β^78. 5) It's promoter region has STAT1 and 5 binding sites (www|.|sabiosciences|.|com/chipqpersearch.php?species_id=0&nfactor=n&ninfo=n&ngene=n&B2=Search&src=genecard&factor=Over+200+TF&gene=POSTN). Thus, we can use periostin to affirm JAK/STAT signaling and mesothelial dedifferentiation.

Met-5A cells = test: Cleaved caspase-3 Western blot after exposure to peritoneal dialysis fluid; assay type: cell-based; details: 250 nM P6, 24 h; heated PDF, F-PDF, Low GDP-FPDF; FIG. 5N
Method: Methods: Met-5A cells were incubated with heated peritoneal dialysis fluid (PDF), filtered (F-PDF) and Low GDP-FPDF with or without 250 nM JAK inhibitor (Jaki) P6, and cells were harvested at 24 h for measuring cleaved caspase-3 by Western blot as an indication of cell death. 100 μg of cell lysate was separated on a 8-16% SDS polyacrylamide gel. Proteins were transferred onto a nitrocellulose membrane, blocked with 5% BSA in TBST and incubated with primary anti-cleaved caspase-3 antibody (1; 1000, Cell Signaling) overnight. After incubation with a HRP conjugated anti-rabbit antibody (1:1500, GE Healthcare UK Ltd, Piscataway, N.J.), protein bands were visualized by chemiluminiscence (Thermo Scientific). GAPDH serves as an internal control.

peritoneal membrane = test: Rat PD with 4.25% Dianeal (biPDF), peritoneal histology; assay type: in vivo; details: rats undergoing PD with bioincompatible PDF (biPDF), compared to placebo
Description: In rats, 10 days of PD with 4.25% Dianeal induced mesothelial cell reactive hyperplasia, fibrosis, inflammation, and JAK1 phosphorylation, all of which are attenuated by a JAK1/2 inhibitor. Visceral and parietal peritoneum respond to biPDF differently^33, 88, so only like tissues were compared across treatments.

Row | Compound | leptin-induced TGFβ synthesis [1] | secretion of the STAT-associated protein periostin into the medium (JAK/STAT signaling; heated PDF, after 24 hrs, FIG. 1B) | STAT1 phosphorylation induced by heated PDF (JAK/STAT signaling; immortalized human mesothelial cell line, heat-sterilized PDF (30:70, medium:PDF) x 4 hrs, FIG. 1A) | caspase-3 cleavage induced by PDF (indication of cell death) (Met-5A cells) | structural integrity of the peritoneal membrane (peritoneal membrane)
1 | N#C/C(=C\c1ccc(O)c(O)c1)C(=O)NCc1ccccc1 [AG-490] | abolished | – | – | – | –
2 | CC(C)(C)c1nc2c3cc[nH]c(=O)c3c3cc(F)ccc3c2[nH]1 [P6] | – | attenuated | attenuated | reduced | preserved
